Source: patent US20120309796A1, “BENZOCYCLOHEPTENE ACETIC ACIDS” (priority 2011, published 2012)

Biological target: T1, human CRTH2 (Homo sapiens, UniProt Q9Y5Y4)
T1 sequence (Q9Y5Y4 1-395): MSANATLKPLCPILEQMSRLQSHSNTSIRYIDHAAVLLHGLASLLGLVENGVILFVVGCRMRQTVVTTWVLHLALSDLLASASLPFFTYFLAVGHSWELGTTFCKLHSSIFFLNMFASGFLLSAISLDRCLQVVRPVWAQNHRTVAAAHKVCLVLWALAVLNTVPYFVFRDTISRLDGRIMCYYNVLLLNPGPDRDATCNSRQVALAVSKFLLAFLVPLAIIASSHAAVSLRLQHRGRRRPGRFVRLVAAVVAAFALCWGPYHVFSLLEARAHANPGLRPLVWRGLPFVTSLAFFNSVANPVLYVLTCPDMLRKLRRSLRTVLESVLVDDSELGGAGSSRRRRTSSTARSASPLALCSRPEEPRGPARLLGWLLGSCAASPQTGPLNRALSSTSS
Experiment: Calcium Flux Assay Using Fluorometric Imaging Plate Reader (FLIPR)
Assay type: cell-based
Set-up: expressed in transfected cells; host or cells: CHO-K1 previously transfected with G-alpha 16
Settings: CHO-K1 cells with G-alpha 16 and human CRTH2; inhibition of DK-PGD2 ligand-induced Ca2+ flux
Procedure: CHO-K1 cells previously transfected with G-alpha 16 were subsequently transfected with the human CRTH2 receptor and the neomycin resistance gene. Following selection in 800 μg/mL G418 (geneticin), individual clones were assayed for their receptor expression based on staining with an anti human CRTH2 IgG, followed by assaying for their response to 13,14-dihydro-15-keto Prostaglandin D2 (DK-PDG2) (ligand) in the Ca^2+ Flux assay. Positive clones were then cloned by limiting dilution cloning. The transfected cells were cultured in Ham's F-12 medium supplemented with 10% fetal bovine serum, 2 mM glutamine, 100 U/mL penicillin/100 μg/mL streptomycin, 200 μg/mL hygromycin B, and 800 μg/mL G418 (geneticin). Cells were harvested with trypsin-EDTA (trypsin-ethylenediaminetetraacetic acid) and counted using ViaCount® reagent (from Guava Technologies, Inc. which contains two DNA-binding dyes that enable the reagent user to distinguish between viable and non-viable cells). The cell suspension volume was adjusted to 2.5×10^5 cells/mL with complete growth media. Aliquots of 50 μL were dispensed into BD Falcon™ 384 well black/clear microplates (from BD Biosciences, a division of Becton, Dickinson and Company) and the microplates were placed in a 37° C. CO2 incubator overnight. The following day, the microplates were used in the assay.
Loading Buffer containing dye (from the FLIPR® Calcium 3 Assay Kit from Molecular Devices, a division of MDS Analytical Technologies and MDS Inc.) was prepared by dissolving the contents of one bottle into 200 mL Hank's Balanced Salt Solution containing 20 mM HEPES (4-(2-hydroxyethyl)-1-piperazineethanesulfonic acid) and 2.5 mM probenecid. Growth media was removed from the cell plates and 25 μL of Hank's Balanced Salt Solution (HBSS) containing 20 mM HEPES, 0.05% BSA and 2.5 mM probenecid was added to each well followed by 25 μL of diluted dye using a Multidrop dispenser. The plates were then incubated for 1 hour at 37° C.
During the incubation, test compound plates were prepared by adding 90 μL of HBSS/20 mM HEPES/0.005% BSA buffer to the 2 μL of serial diluted compounds. To prepare serial diluted compounds, 20 mM stocks of compounds were dissolved in 100% DMSO. The compound dilution plate was set up as follows: well #1 received 5 μL of compound plus 10 μL of DMSO. Wells 2-10 received 10 μL of DMSO. 5 μL was mixed and transferred from well #1 into well #2. 1:3 serial dilutions were continued out 10 steps. 2 μl of diluted compound was transferred into duplicate wells of a 384 well “assay plate” and then 90 μL of buffer was added.
After incubation, both the cell and “assay plate” plates were brought to the fluorometric imaging plate reader (FLIPR®) and 20 μL of the diluted compounds were transferred to the cell plates by the FLIPR®. Plates were then incubated for 1 hour at room temperature. After the 1 hour incubation, plates were returned to the FLIPR® and 20 μL of 4.5× concentrated ligand was added to the cell plates. During the assay, fluorescence readings were taken simultaneously from all 384 wells of the cell plate every 1.5 seconds. Five readings were taken to establish a stable baseline, then 20 μL of sample was rapidly (30 μL/sec) and simultaneously added to each well of the cell plate. The fluorescence was continuously monitored before, during and after sample addition for a total elapsed time of 100 seconds. Responses (increase in peak fluorescence) in each well following agonist addition were determined. The initial fluorescence reading from each well, prior to ligand stimulation, was used as a zero baseline value for the data from that well. The responses were expressed as % inhibition of the buffer control. […]

SMILES	IC50 [nM]
O=C(O)COc1cccc2c1CCCCC2NS(=O)(=O)c1cc(C(F)(F)F)cc(C(F)(F)F)c1 (single isomer, unassigned) [Example 46, [5-(3,5-Bis-trifluoromethyl-benzenesulfonylamino)-6,7,8,9-tetrahydro-5H-benzocyclohepten-1-yloxy]-acetic acid]	188
O=C(O)COc1cccc2c1CCCCC2NS(=O)(=O)c1cc(C(F)(F)F)cc(C(F)(F)F)c1 (centres unmarked) [Example 1, [5-(3,5-Bis-trifluoromethyl-benzenesulfonylamino)-6,7,8,9-tetrahydro-5H-benzocyclohepten-1-yloxy]-acetic acid]	114
